The text below walks through data of US20180193332A1, “LOW-TEMPERATURE STABLE OPIOID ANTAGONIST SOLUTIONS” (priority 2017, published 2018).

The structures appear in SMILES notation. Where a name gives a salt, the structure may show the parent alone.

Data set [1] can be described thus: Naloxone stability (visual precipitation) during storage at 4° C. It counts as physicochemical.
A short description of data set [2]: Naloxone HCl precipitation after freeze/thaw. It counts as physicochemical. An excerpt:
However, the solution remained opaque when thawed, and precipitation was evident. […] The precipitate could not be re-dissolved in solution following sonication. […]

Setting [3] is: per 100 mL: EDTA-Na2 0 mg, PG 5% w/v.
Setting [4] is: per 100 mL: EDTA-Na2 0 mg, PG 10% w/v.
The mark [5] stands for this setting: per 100 mL: EDTA-Na2 0 mg, PG 20% w/v.
Setting [6] is: per 100 mL: EDTA-Na2 100 mg, PG 5% w/v.
[7] abbreviates: per 100 mL: EDTA-Na2 100 mg, PG 10% w/v.
Where [8] appears, read: per 100 mL: EDTA-Na2 100 mg, PG 20% w/v.

Turning to `C=CCN1CC[C@]23c4c5ccc(O)c4O[C@H]2C(=O)CC[C@@]3(O)[C@H]1C5` [Naloxone], the “Observed naloxone precipitation 24 days” value in data set [1] (setting [3]) is “No”; in data set [1] (setting [4]) it was “No”; in data set [1] (setting [5]), “No”; in data set [1] (setting [6]) it was “No”; in data set [1] (setting [7]), “No”; in data set [1] (setting [8]), “No and Slight”. Besides, the “Observed naloxone precipitation 35 days” value is “No” in data set [1] (setting [3]); “No” in data set [1] (setting [4]); “No” in data set [1] (setting [5]); “No” in data set [1] (setting [6]); “No” in data set [1] (setting [7]); “No and Yes” in data set [1] (setting [8]). The “Observed naloxone precipitation 53 days” value in data set [1] (setting [3]) was “No”; in data set [1] (setting [4]), “No”; in data set [1] (setting [5]), “No”; in data set [1] (setting [6]), “No”; in data set [1] (setting [7]) it was “No and Slight”; in data set [1] (setting [8]) it was “No and Yes”.

For the compound `C=CCN1CC[C@]23c4c5ccc(O)c4O[C@H]2C(=O)CC[C@@]3(O)[C@H]1C5` [naloxone HCl], the “Naloxone precipitation?” value is recorded as “yes” in data set [2] (per mL: NaCl 3.7 mg, EDTA-Na2 2.0 mg, PG 20% w/v, EtOH 0% w/v, 1 freeze/thaw cycle); “No” in data set [2] (per mL: NaCl 7.4 mg, EDTA-Na2 0.0 mg, PG 5% w/v, EtOH 0% w/v, 3 freeze/thaw cycles); “no” in data set [2] (per mL: NaCl 7.4 mg, EDTA-Na2 0.0 mg, PG 10% w/v, EtOH 0% w/v, 3 freeze/thaw cycles); “no” in data set [2] (per mL: NaCl 7.4 mg, EDTA-Na2 0.0 mg, PG 20% w/v, EtOH 0% w/v, 3 freeze/thaw cycles); “no” in data set [2] (per mL: NaCl 7.4 mg, EDTA-Na2 1.0 mg, PG 5% w/v, EtOH 0% w/v, 3 freeze/thaw cycles); “no” in data set [2] (per mL: NaCl 7.4 mg, EDTA-Na2 1.0 mg, PG 10% w/v, EtOH 0% w/v, 3 freeze/thaw cycles). For the same compound, the “Naloxone precipitation?” value in data set [2] (per mL: NaCl 7.4 mg, EDTA-Na2 1.0 mg, PG 20% w/v, EtOH 0% w/v, 4 freeze/thaw cycles) is on record as “no”; in data set [2] (per mL: NaCl 7.4 mg, EDTA-Na2 1.0 mg, PG 20% w/v, EtOH 0% w/v, 7 freeze/thaw cycles) it was “no”; in data set [2] (per mL: NaCl 7.4 mg, EDTA-Na2 2.0 mg, PG 10% w/v, EtOH 0% w/v, 1 freeze/thaw cycle), “yes”; in data set [2] (per mL: NaCl 7.4 mg, EDTA-Na2 2.0 mg, PG 20% w/v, EtOH 0% w/v, 1 freeze/thaw cycle) it was “yes”; in data set [2] (per mL: NaCl 7.4 mg, EDTA-Na2 2.0 mg, PG 20% w/v, EtOH 2% w/v, 1 freeze/thaw cycle), “yes”; in data set [2] (per mL: NaCl 7.4 mg, EDTA-Na2 2.0 mg, PG 20% w/v, EtOH 5% w/v, 1 freeze/thaw cycle), “yes”. The “Naloxone precipitation?” value was “yes” in data set [2] (per mL: NaCl 7.4 mg, EDTA-Na2 2.0 mg, PG 20% w/v, EtOH 10% w/v, 1 freeze/thaw cycle) and “yes” in data set [2] (per mL: NaCl 7.4 mg, EDTA-Na2 2.0 mg, PG 30% w/v, EtOH 0% w/v, 1 freeze/thaw cycle).
